Laboratory results from article PMC11351036, “Biochemical characterization of a SusD-like protein involved in β-1,3-glucan utilization by an uncultured cow rumen Bacteroides” (mSphere, 2024).

Molecular target: T1, 41O1_SusD-like (uncultured Bacteroides sp., UniProt Z9V4V4YR65)
T1 construct: mature protein without predicted lipoprotein signal peptide, N-terminal 6-His tag (pET-28a(+)), E. coli BL21(DE3), codon-optimized gene, 57 kDa, monomer fraction used
T1 sequence (Z9V4V4YR65 22-505): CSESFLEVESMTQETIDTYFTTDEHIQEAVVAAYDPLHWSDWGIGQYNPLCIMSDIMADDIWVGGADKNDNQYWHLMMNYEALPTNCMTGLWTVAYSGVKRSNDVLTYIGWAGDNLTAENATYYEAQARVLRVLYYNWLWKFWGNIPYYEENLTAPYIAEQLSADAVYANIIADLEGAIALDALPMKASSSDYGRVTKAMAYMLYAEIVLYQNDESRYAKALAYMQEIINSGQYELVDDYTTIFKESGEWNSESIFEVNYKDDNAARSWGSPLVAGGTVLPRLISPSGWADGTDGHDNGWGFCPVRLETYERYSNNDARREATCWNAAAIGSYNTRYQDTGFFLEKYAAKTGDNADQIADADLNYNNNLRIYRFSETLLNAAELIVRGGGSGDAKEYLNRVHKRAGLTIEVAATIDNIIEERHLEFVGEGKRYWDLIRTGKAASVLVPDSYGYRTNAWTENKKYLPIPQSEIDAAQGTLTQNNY
Assay: thermal shift, Tycho NT.[…] intrinsic fluorescence
Assay type: binding
Conditions: 0.5% (w/v) ligand, 10 µM protein, 20 mM Tris-HCl, 150 mM NaCl, pH 7.4

Row | ∆T°C [°C] | Structure (SMILES)
1 | 1.2 | OC[C@H]1O[C@@H](O[C@H]2[C@H](O)[C@@H](O)[C@H](O[C@H]3[C@H](O)[C@@H](O)C(O)O[C@@H]3CO)O[C@@H]2CO)[C@H](O)[C@@H](O)[C@@H]1O (some centres unmarked) [Cellotriose]
2 | 4.7 | OC[C@H]1O[C@@H](O[C@@H]2[C@@H](O)[C@H](O[C@H]3[C@H](O)[C@@H](CO)OC(O)[C@@H]3O)O[C@H](CO)[C@H]2O)[C@H](O)[C@@H](O)[C@@H]1O (some centres unmarked) [Laminaritriose]
